Series [1] relates to HCV replicon (Huh-7 luc/neo, NS3-NS5B of HCV type 1b). The series can be described thus: HCV replicon assay (Huh-Luc, luciferase readout). The class given is cell-based. The note with it: Hepatitis C virus, Huh-7, 72 h, Huh-Luc cells, HCV type 1b replicon, three days incubation, luciferase activity. An excerpt:
The compounds of formula I were examined for activity in the inhibition of HCV RNA replication in a cellular assay aimed at identifying compounds that inhibit a HCV functional cellular replicating cell line, also known as HCV replicons. The cellular assay was based on a bicistronic expression construct, as described by Lohmann et al. (1999), Science vol. 285 pp. 110-113 with modifications described by Krieger et al. (2001), Journal of Virology 75: 4614-4624, in a multi-target screening strategy.
The assay utilized the stably transfected cell line Huh-7 luc/neo (hereafter referred to as Huh-Luc). This cell line harbors an RNA encoding a bicistronic expression construct comprising the wild type NS3-NS5B regions of HCV type 1b translated from an Internal Ribosome Entry Site (IRES) from encephalomyocarditis virus (EMCV), preceded by a reporter portion (FfL-luciferase), and a selectable marker portion (neoR, neomycine phosphotransferase). The construct is bordered by 5′ and 3′ NTRs (non-translated regions) from HCV type 1b. Continued culture of the replicon cells in the presence of G418 (neo^R) is dependent on the replication of the HCV RNA. The stably transfected replicon cells that express HCV RNA, which replicates autonomously and to high levels, encoding inter alia luciferase, were used for screening the antiviral compounds.
The replicon cells were plated in 384 well plates in the presence of the test and control compounds which were added in various concentrations. Following an incubation of three days, HCV replication was measured by assaying luciferase activity (using standard luciferase assay substrates and reagents and a Perkin Elmer ViewLux™ ultraHTS microplate imager). Replicon cells in the control cultures have high luciferase expression in the absence of any inhibitor. The inhibitory activity of the compound on luciferase activity was monitored on the Huh-Luc cells, enabling a dose-response curve for each test compound. EC50 values were then calculated, which value represents the amount of the compound required to decrease the level of detected luciferase activity by 50%, or more specifically, the ability of the genetically linked HCV replicon RNA to replicate.
Background: A replicon is a self-replicating genome or part of one, used to study replication in cells.

Series [2] is described as follows: Cellular toxicity in Huh7-CMV-Luc replicon assay. The class given is cell-based. Conditions: human, Huh7-CMV-Luc cells, three days incubation, Luc activity; read-out: CC50 (μM) (Huh-7). The method, then:
Cellular toxicity was determined in the Huh7-CMV-Luc replicon assay. Replicon cells (2500 cells/well), stably transformed with a luciferase reporter gene under control of the cytomegalovirus (CMV) constitutive promotor, were cultured in the presence or absence of test compound concentrations. After three days of incubation at 37° C. in a humidified 5% CO2 atmosphere, cell proliferation was quantified by measuring the Luc activity, and expressed as CC50 values (cytotoxicity, 50% inhibitory concentration of cell growth). Tests were performed in 384-well plates.

The test system of series [3] is wild type human immunodeficiency virus (HIV) strain IIIB. The series can be described thus: HIV assay in MT4 LTR-EGFP cells. The class given is cell-based, HIV-1. Conditions: Human immunodeficiency virus 1, IIIB, 72 h, three days after infection. The method, then:
(§1) Compounds of the invention were tested for their potency against wild type human immunodeficiency virus (HIV). Antiviral activity was evaluated using a cellular assay performed according to the following procedure. The human T-cell line MT4 was engineered with Green Fluorescent Protein (GFP) and a HIV-specific promoter, HIV-1 long terminal repeat (LTR). This cell line, designated MT4 LTR-EGFP, can be used for the in vitro evaluation of anti-HIV activity of investigational compounds. In HIV-1 infected cells, the Tat protein is produced, which upregulates the LTR promotor and eventually leads to stimulation of the GFP reporter production, allowing to measure ongoing HIV-infection fluorometrically. Effective concentration values such as 50% effective concentration (EC50) can be determined and are usually expressed in μM. An EC50 value is defined as the concentration of test compound that reduces the fluorescence of HIV-infected cells by 50%. Monitoring of HIV-1 infection was done using a scanning microscope. Image analysis allows very sensitive detection of viral infection. Measurements were done before cell necrosis, which usually takes place about five days after infection, in particular measurements were performed three days after infection. The column IIIB in the table list the EC50 values against the wild type strain IIIB.

The nature of series [4]: Cellular toxicity in the HIV cell-line (MT-4). The class given is cell-based, human. The note with it: human. As for the experimental part:
as §1
Also the HIV activity is given (EC50 HIV (μM)) and the cellular toxicity in the HIV cell-line (CC50 (μM) (MT-4)).

Bounds are passed on as bounds.

On to `C[C@H](NP(=O)(OC[C@H]1O[C@@H](n2ccc(=O)[nH]c2=O)C2(CC2)[C@@H]1O)Oc1ccccc1)C(=O)OC1CCCC1` (some centres unmarked) [Compound 14], for which the half-maximal effective concentration (EC50) (commonly the concentration at which the effect is half-maximal) in series [1] is 3.3 µM; in series [3], more than 98 µM. Moreover, the CC50 – broadly, the concentration that lowers cell viability or growth by half – at 3 days in series [2] was more than 98 µM. In series [4], this molecule returned a CC50 of more than 98 µM.

For the molecule `C[C@H](NP(=O)(OC[C@H]1O[C@@H](n2ccc(=O)[nH]c2=O)C2(CC2)[C@@H]1O)Oc1ccccc1)C(=O)OCc1ccccc1` (some centres unmarked) [Compound 9], the EC50 in series [1] is 2.9 µM; in series [3] it was more than 85 µM. For the same molecule, the cytotoxic concentration (CC50) at 3 days in series [2] is more than 98 µM. The same molecule had a CC50 in series [4] of more than 98 µM.

With `O=C(CNP(=O)(OC[C@H]1O[C@@H](n2ccc(=O)[nH]c2=O)C2(CC2)[C@@H]1O)Oc1cccc2ccccc12)OCc1ccccc1` (some centres unmarked) [Compound 6], the concentration giving a half-maximal response (EC50) was 16.5 µM in series [1] and more than 90 µM in series [3]. For the same molecule, in series [2], the cytotoxic concentration (CC50) at 3 days is more than 98 µM. For the same molecule, in series [4], the 50% cytotoxic concentration (CC50) was more than 98 µM.

With `CC(C)(NP(=O)(OC[C@H]1O[C@@H](n2ccc(=O)[nH]c2=O)C2(CC2)[C@@H]1O)Oc1ccccc1)C(=O)OCc1ccccc1` (some centres unmarked) [Compound 4], the EC50 in series [1] was 23.9 µM; in series [3], more than 98 µM. For the same molecule, the CC50 at 3 days in series [2] is more than 98 µM. This molecule returned a 50% cytotoxic concentration (CC50) in series [4] of more than 98 µM.

`C[C@H](NP(=O)(OC[C@H]1O[C@@H](n2ccc(=O)[nH]c2=O)C2(CC2)[C@@H]1O)Oc1ccc(Cl)cc1)C(=O)OCc1ccccc1` (some centres unmarked) [Compound 7]: the EC50 in series [1] is 6.1 µM; in series [3] it was more than 90 µM. The 50% cytotoxic concentration (CC50) at 3 days in series [2] is more than 90 µM. Besides, the cytotoxic concentration (CC50) in series [4] is more than 64 µM.

In the case of `CC[C@H](NP(=O)(OC[C@H]1O[C@@H](n2ccc(=O)[nH]c2=O)C2(CC2)[C@@H]1O)Oc1ccccc1)C(=O)OC(C)C` (some centres unmarked) [Compound 31], the EC50 in series [1] is more than 98 µM; in series [3] it was more than 95 µM. The CC50 at 3 days in series [2] was more than 98 µM. Besides, the CC50 in series [4] was more than 98 µM.

As to `Cc1cc(OP(=O)(N[C@@H](C)C(=O)OCc2ccccc2)OC[C@H]2O[C@@H](n3ccc(=O)[nH]c3=O)C3(CC3)[C@@H]2O)c(C(C)C)cc1Cl` (some centres unmarked) [Compound 2], the values for the EC50 in series [1] and in series [3] were 14.3 µM and more than 50 µM, respectively. Besides, in series [2], the cytotoxic concentration (CC50) at 3 days was more than 32 µM. In series [4], the half-maximal cytotoxic concentration (CC50) was more than 32 µM.

As to `CCOC(=O)C1(NP(=O)(OC[C@H]2O[C@@H](n3ccc(=O)[nH]c3=O)C3(CC3)[C@@H]2O)Oc2ccccc2)CCC1` (some centres unmarked) [Compound 32], the 50% effective concentration (EC50) in series [1] and in series [3] was more than 98 µM in each case. Moreover, the half-maximal cytotoxic concentration (CC50) at 3 days in series [2] was more than 98 µM. Moreover, in series [4], the 50% cytotoxic concentration (CC50) is more than 98 µM.

Consider `CCCCOC(=O)[C@H](C)NP(=O)(OC[C@H]1O[C@@H](n2ccc(=O)[nH]c2=O)C2(CC2)[C@@H]1O)Oc1cccc2ccccc12` (some centres unmarked) [Compound 15], for which the figures for the concentration giving a half-maximal response (EC50) in series [1] and in series [3] were 3.6 µM and more than 60 µM, respectively. Besides, the CC50 at 3 days in series [2] was more than 98 µM. In series [4], this molecule showed a CC50 of more than 60 µM.

Take `CCCC(CCC)COC(=O)[C@H](C)NP(=O)(OC[C@H]1O[C@@H](n2ccc(=O)[nH]c2=O)C2(CC2)[C@@H]1O)Oc1ccccc1` (some centres unmarked) [Compound 10]: the half-maximal effective concentration (EC50) was 2.8 µM in series [1] and more than 60 µM in series [3]. The 50% cytotoxic concentration (CC50) at 3 days in series [2] is more than 32 µM. In series [4], this molecule gave a cytotoxic concentration (CC50) of 29 µM.

Take `CC(C)OC(=O)[C@H](C)NP(=O)(OC[C@H]1O[C@@H](n2ccc(=O)[nH]c2=O)C2(CC2)[C@@H]1O)Oc1ccccc1` (some centres unmarked) [Compound 3]: the EC50 is 9.6 µM in series [1] and more than 98 µM in series [3]. Further, the 50% cytotoxic concentration (CC50) at 3 days in series [2] was more than 98 µM. The molecule further returned a half-maximal cytotoxic concentration (CC50) in series [4] of more than 98 µM.

As to `Cc1ccc(C(C)C)c(OP(=O)(N[C@@H](C)C(=O)OCc2ccccc2)OC[C@H]2O[C@@H](n3ccc(=O)[nH]c3=O)C3(CC3)[C@@H]2O)c1` (some centres unmarked) [Compound 22], the EC50 in series [1] turned out to be 9.2 µM; in series [3], 1.65 µM. Besides, the cytotoxic concentration (CC50) at 3 days in series [2] is more than 32 µM. The molecule further displayed a CC50 in series [4] of 2.1 µM.

Consider `CCOC(=O)c1ccccc1OP(=O)(N[C@@H](C)C(=O)OCc1ccccc1)OC[C@H]1O[C@@H](n2ccc(=O)[nH]c2=O)C2(CC2)[C@@H]1O` (some centres unmarked) [Compound 34], for which, in series [1], the EC50 was determined as 11 µM. Moreover, the CC50 at 3 days in series [2] is more than 98 µM.
